Experimental data as given in PubChem BioAssay AID248 (DTP/NCI, 2004).
Values joined by “and” are separate entries in the source; they are usually repeats but may differ in a detail not shown here. Equal values may be shown once. Toxic doses and inconclusive results are not listed. Rule as the data show it: active = T/C of 150% or more; inactive = T/C below 125%.

Tested on: L1210 leukemia ip in BDF1 mice, survival T/C
Assay: NCI In Vivo Anticancer Drug Screen. Data for tumor model L1210 Leukemia (intraperitoneal) in B6D2F1 (BDF1) mice
Details: endpoint: mean survival time, higher = longer survival
Procedure, shortened: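 Transplantable tumor model; survival measured in treated vs vehicle control mice. Value = treated/control.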

[1] = dose: 50.0 mg/kg/injection, schedule: Q01DX009 (ip), vehicle: Klucel (hydroxypropylcellulose) (HPC)
[2] = dose: 100.0 mg/kg/injection, schedule: Q01DX001 (ip), vehicle: Klucel (hydroxypropylcellulose) (HPC)
[3] = dose: 200.0 mg/kg/injection, schedule: Q01DX001 (ip), vehicle: Klucel (hydroxypropylcellulose) (HPC)
[4] = dose: 400.0 mg/kg/injection, schedule: Q01DX001 (ip), vehicle: Klucel (hydroxypropylcellulose) (HPC)
[5] = dose: 100.0 mg/kg/injection, schedule: Q01DX001 (ip), vehicle: saline
[6] = dose: 100.0 mg/kg/injection, schedule: Q04DX003 (ip), vehicle: saline
[7] = dose: 200.0 mg/kg/injection, schedule: Q01DX001 (ip), vehicle: saline
[8] = dose: 400.0 mg/kg/injection, schedule: Q01DX001 (ip), vehicle: saline
[9] = dose: 50.0 mg/kg/injection, schedule: Q01DX001 (ip), vehicle: Klucel (hydroxypropylcellulose) (HPC)
[10] = dose: 100.0 mg/kg/injection, schedule: Q04DX002 (ip), vehicle: Klucel (hydroxypropylcellulose) (HPC)
[11] = dose: 200.0 mg/kg/injection, schedule: Q04DX002 (ip), vehicle: Klucel (hydroxypropylcellulose) (HPC)

Measured: T/C

Cc1nc(-c2ccccc2)c(-c2ccccc2)[nH]1
inactive: [1] 99 % of control | dose: 66.0 mg/kg/injection, schedule: Q01DX009 (ip), vehicle: Klucel (hydroxypropylcellulose) (HPC) 113 % of control | dose: 100.0 mg/kg/injection, schedule: Q01DX009 (ip), vehicle: Klucel (hydroxypropylcellulose) (HPC) 111 % of control | dose: 100.0 mg/kg/injection, schedule: Q04DX003 (ip), vehicle: Klucel (hydroxypropylcellulose) (HPC) 101 % of control | dose: 150.0 mg/kg/injection, schedule: Q01DX009 (ip), vehicle: Klucel (hydroxypropylcellulose) (HPC) 92 % of control | dose: 200.0 mg/kg/injection, schedule: Q04DX003 (ip), vehicle: Klucel (hydroxypropylcellulose) (HPC) 101 % of control

CC[N+]1(C)CCOCC1
inactive: dose: 75.0 mg/kg/injection, schedule: Q01DX001 (ip), vehicle: saline 96 % of control and 94 % of control and 107 % of control | dose: 150.0 mg/kg/injection, schedule: Q01DX001 (ip), vehicle: saline 94 % of control and 100 % of control and 98 % of control | dose: 300.0 mg/kg/injection, schedule: Q01DX001 (ip), vehicle: saline 96 % of control and 98 % of control

CC(=O)c1ccc(S(=O)(=O)NCCCc2c(C)nc(NS(=O)(=O)c3ccc(C(C)=O)cc3)[nH]c2=O)cc1
inactive: dose: 100.0 mg/kg/injection, schedule: Q01DX001 (ip), vehicle: carboxymethylcellulose (CMC) 98 % of control | dose: 200.0 mg/kg/injection, schedule: Q01DX001 (ip), vehicle: carboxymethylcellulose (CMC) 96 % of control | dose: 400.0 mg/kg/injection, schedule: Q01DX001 (ip), vehicle: carboxymethylcellulose (CMC) 93 % of control

Oc1cccc(-c2cccc(OCCCCCCCCCCBr)c2)c1
inactive: dose: 12.5 mg/kg/injection, schedule: Q01DX009 (ip), vehicle: DMSO 108 % of control | dose: 25.0 mg/kg/injection, schedule: Q01DX009 (ip), vehicle: DMSO 94 % of control | dose: 100.0 mg/kg/injection, schedule: Q04DX003 (ip), vehicle: DMSO 92 % of control | dose: 200.0 mg/kg/injection, schedule: Q04DX003 (ip), vehicle: DMSO 91 % of control

CC(C)c1ccc2c(c1)CCC1C(CN=C(N)CSS(=O)(=O)O)CCCC21C (centres undefined)
inactive: dose: 75.0 mg/kg/injection, schedule: Q01DX001 (ip), vehicle: saline with Tween-80 95 % of control | dose: 150.0 mg/kg/injection, schedule: Q01DX001 (ip), vehicle: saline with Tween-80 102 % of control

CC(C)C(C#N)c1ccccc1 (centres undefined)
inactive: dose: 12.5 mg/kg/injection, schedule: Q01DX009 (ip), vehicle: Klucel (hydroxypropylcellulose) (HPC) 97 % of control | dose: 25.0 mg/kg/injection, schedule: Q01DX009 (ip), vehicle: Klucel (hydroxypropylcellulose) (HPC) 100 % of control | dose: 25.0 mg/kg/injection, schedule: Q04DX003 (ip), vehicle: Klucel (hydroxypropylcellulose) (HPC) 96 % of control | [1] 97 % of control | dose: 50.0 mg/kg/injection, schedule: Q04DX003 (ip), vehicle: Klucel (hydroxypropylcellulose) (HPC) 98 % of control

COC(=O)/C=C1/OC(=O)CC1(C)C
inactive: [2] 106 % of control | dose: 100.0 mg/kg/injection, schedule: Q01DX009 (ip), vehicle: saline sonified 100 % of control | [3] 104 % of control | dose: 200.0 mg/kg/injection, schedule: Q01DX009 (ip), vehicle: saline sonified 96 % of control | [4] 107 % of control | dose: 400.0 mg/kg/injection, schedule: Q01DX009 (ip), vehicle: saline sonified 100 % of control

O=[N+]([O-])c1ccc(O)c(I)c1
inactive: [5] 97 % of control | [6] 100 % of control | [7] 98 % of control | dose: 200.0 mg/kg/injection, schedule: Q04DX003 (ip), vehicle: saline 105 % of control | [8] 95 % of control | dose: 400.0 mg/kg/injection, schedule: Q04DX003 (ip), vehicle: saline 102 % of control

Cc1cc(-c2ccccc2)c2c(C#N)cn(-c3cccc(Cl)c3)c2n1
inactive: dose: 100.0 mg/kg/injection, schedule: Q01DX001 (ip), vehicle: saline with Tween-80 92 % of control | [5] 87 % of control | dose: 200.0 mg/kg/injection, schedule: Q01DX001 (ip), vehicle: saline with Tween-80 106 % of control | dose: 400.0 mg/kg/injection, schedule: Q01DX001 (ip), vehicle: saline with Tween-80 92 % of control | [8] 102 % of control

O=S(=O)(/N=c1/ccc(NS(=O)(=O)c2ccccc2)cn1O)c1ccccc1
inactive: [9] 96 % of control | [2] 102 % of control | [3] 98 % of control

COc1ccc(CC#N)cc1
inactive: dose: 2.5 mg/kg/injection, schedule: Q04DX002 (ip), vehicle: Klucel (hydroxypropylcellulose) (HPC) 103 % of control | dose: 5.0 mg/kg/injection, schedule: Q01DX009 (ip), vehicle: Klucel (hydroxypropylcellulose) (HPC) 91 % of control | dose: 5.0 mg/kg/injection, schedule: Q04DX002 (ip), vehicle: Klucel (hydroxypropylcellulose) (HPC) 98 % of control | dose: 10.0 mg/kg/injection, schedule: Q01DX009 (ip), vehicle: Klucel (hydroxypropylcellulose) (HPC) 89 % of control | dose: 10.0 mg/kg/injection, schedule: Q04DX002 (ip), vehicle: Klucel (hydroxypropylcellulose) (HPC) 98 % of control and 110 % of control | dose: 20.0 mg/kg/injection, schedule: Q01DX009 (ip), vehicle: Klucel (hydroxypropylcellulose) (HPC) 92 % of control

CCOC(=O)NC(NC(=O)OCC)C(Br)(Br)Br
inactive: dose: 25.0 mg/kg/injection, schedule: Q01DX001 (ip), vehicle: Klucel (hydroxypropylcellulose) (HPC) 112 % of control | dose: 25.0 mg/kg/injection, schedule: Q04DX002 (ip), vehicle: Klucel (hydroxypropylcellulose) (HPC) 104 % of control | [9] 112 % of control | dose: 50.0 mg/kg/injection, schedule: Q04DX002 (ip), vehicle: Klucel (hydroxypropylcellulose) (HPC) 106 % of control | [2] 108 % of control | [10] 104 % of control | [3] 116 % of control | [11] 102 % of control

c1cc[c]([Ge]([CH2][CH2][Sn]([c]2ccccc2)([c]2ccccc2)[c]2ccccc2)([c]2ccccc2)[c]2ccccc2)cc1
inactive: dose: 100.0 mg/kg/injection, schedule: Q04DX002 (ip), vehicle: saline with Tween-80 102 % of control | dose: 200.0 mg/kg/injection, schedule: Q04DX002 (ip), vehicle: saline with Tween-80 98 % of control | dose: 400.0 mg/kg/injection, schedule: Q04DX002 (ip), vehicle: saline with Tween-80 98 % of control

CC(=O)Nc1nc2oc(C)nc2c(=O)[nH]1
inactive: [2] 104 % of control | [3] 97 % of control | [4] 103 % of control

CC1CCN(C(=S)[S-])CC1.CC1CCN(C(=S)[S-])CC1.[Zn]
inactive: dose: 12.5 mg/kg/injection, schedule: Q01DX009 (ip), vehicle: saline 111 % of control | dose: 25.0 mg/kg/injection, schedule: Q01DX009 (ip), vehicle: saline 107 % of control | dose: 50.0 mg/kg/injection, schedule: Q01DX009 (ip), vehicle: saline 100 % of control | [6] 103 % of control

CCOC(=O)c1c(OC(C)=O)cc(C)nc1OC(C)=O
inactive: [5] 100 % of control | [7] 100 % of control | [8] 111 % of control

CC(C)(C)C(=O)CC(c1ccccc1)c1ccccc1
inactive: dose: 50.0 mg/kg/injection, schedule: Q01DX001 (ip), vehicle: other 102 % of control | dose: 100.0 mg/kg/injection, schedule: Q01DX001 (ip), vehicle: other 98 % of control | dose: 200.0 mg/kg/injection, schedule: Q01DX001 (ip), vehicle: other 98 % of control | dose: 400.0 mg/kg/injection, schedule: Q01DX001 (ip), vehicle: other 98 % of control

O=C(OCC(O)C1OC(c2ccccc2)OC1C(O)COC(=O)c1ccccc1)c1ccccc1 (centres undefined)
inactive: dose: 50.0 mg/kg/injection, schedule: Q04DX003 (ip), vehicle: saline with Tween-80 102 % of control | dose: 100.0 mg/kg/injection, schedule: Q04DX003 (ip), vehicle: saline with Tween-80 92 % of control and 91 % of control | dose: 200.0 mg/kg/injection, schedule: Q04DX003 (ip), vehicle: saline with Tween-80 105 % of control | dose: 400.0 mg/kg/injection, schedule: Q04DX003 (ip), vehicle: saline with Tween-80 89 % of control

COc1ccc([N+](=O)[O-])cc1Br
inactive: dose: 100.0 mg/kg/injection, schedule: Q01DX009 (ip), vehicle: saline with Tween-80 100 % of control | dose: 200.0 mg/kg/injection, schedule: Q01DX009 (ip), vehicle: saline with Tween-80 96 % of control | dose: 400.0 mg/kg/injection, schedule: Q01DX009 (ip), vehicle: saline with Tween-80 98 % of control

ON=C1c2ccccc2-c2ccccc21
inactive: [10] 96 % of control | [11] 93 % of control | dose: 400.0 mg/kg/injection, schedule: Q04DX002 (ip), vehicle: Klucel (hydroxypropylcellulose) (HPC) 104 % of control
